Measured values as given in patent publication US7163944B2, “Cyclic diamine compound and pharmaceutical containing the same” (Kowa Co., Ltd., priority 2004, dated 2007).

Columns and labels:
[1] = tested on: lipid-loaded F1B hamster model; experiment: Aorta lipid deposition suppression test, lipid-loaded F1B hamster model; format: in vivo; conditions: Bio F1B male hamsters, fat-rich diet 10 weeks, 1 mg/kg orally twice a day, aorta Oil red O area vs control group
Method: Test 3: Aorta Lipid Deposition Suppression Test
In accordance with the method of Nicolosi, et al., a test using an animal model of arteriosclerosis, that is, a lipid-loaded F1B hamster model was made and a lipid deposition area in the aortic arch was measured to investigate the effects of the test compound for suppressing lipid deposition [refer to Nicolosi R J, et al., Atherosclerosis 137, 77–85(1988)].
Bio F1B male hamsters purchased from Charles River Japan, Inc. were divided at random into three groups (a compound (1) administered group, a comparative compound (B) administered group and a medicament non-administered group (control group)), each group consisting of 6 hamsters. […] After 10 weeks, an area of the lipid deposited in the aorta was measured by an image analyser. […]
An 18-G injection needle was inserted into the cardiac apex, followed by perfusion with physiological saline (120 mmHg) for about 5 minutes, and then, with a 4% paraformaldehyde solution (120 mmHg) for about 5 minutes. […] The image was scanned into a computer and the area of the portion stained with Oil red 0 and the area of the lumen surface were measured using an image analyser software (“Win Roof”, product of Mitani Shoji). In each case of each group, a ratio of the area of the portion stained with Oil Red O to the lumen surface area was calculated and it was designated as an aorta lipid deposition ratio. […]

ACAT = target: T1, ACAT (Mus musculus, UniProt Q61263); experiment: Cholesterol ester accumulation inhibitory action (ACAT inhibitory activity) in J774 cells; format: cell-based; conditions: 25-hydroxycholesterol 10 μg/ml, 18 hours incubation, concentration inhibiting 50% of CE production, N=4
T1 construct: endogenous in cells; host or cells: J774 cells
T1 sequence (Q61263 1-540): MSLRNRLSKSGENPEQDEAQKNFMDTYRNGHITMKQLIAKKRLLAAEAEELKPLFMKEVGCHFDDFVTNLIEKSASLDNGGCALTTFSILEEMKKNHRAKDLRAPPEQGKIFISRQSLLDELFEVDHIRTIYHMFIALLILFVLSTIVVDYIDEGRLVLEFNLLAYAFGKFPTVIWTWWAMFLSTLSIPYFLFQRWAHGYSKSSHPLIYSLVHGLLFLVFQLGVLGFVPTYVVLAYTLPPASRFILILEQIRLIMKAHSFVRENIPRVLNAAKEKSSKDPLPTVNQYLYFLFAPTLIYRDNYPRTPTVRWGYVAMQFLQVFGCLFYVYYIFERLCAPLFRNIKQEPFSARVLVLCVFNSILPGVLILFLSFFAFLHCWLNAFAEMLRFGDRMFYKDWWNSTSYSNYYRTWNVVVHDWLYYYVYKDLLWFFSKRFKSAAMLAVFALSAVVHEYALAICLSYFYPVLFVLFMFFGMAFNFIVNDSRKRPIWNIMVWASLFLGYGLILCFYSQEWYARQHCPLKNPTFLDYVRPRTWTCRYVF
Method: Test 1: Cholesterol Ester Accumulation Inhibitory Action (ACAT Inhibitory Activity) in J774 Cells.
J774 cells (2×10^5 cells/well) were seeded on a 24-well plate and incubated for 24 hours in 500 μL of DMEM (10% FBS). After replacement with a new medium, 25-hydroxycholesterol (10 μg/ml) and a test compound (final concentration: 0, 10^−9 to 10^−5 mol/L) were added, followed by incubation for 18 hours. After washing with 0.9% NaCl, the lipid was extracted with 250 μL of hexane-isopropanol (3:2) and then extracted with 250 μL of hexane-isopropanol (3:2) again. After the extracts were combined and distilled, the amount of cholesterol ester (CE) thus obtained was determined by the fluorescent enzyme assay. The cells from which the lipid was extracted were subjected to protein assay (micro BCA assay) and the amount of CE per mg of protein was determined. From a CE production ratio of the test compound to the control, IC50 (concentration of the compound inhibiting 50% of CE production) was calculated at N=4.

[2] = Metabolic stability in human liver microsomes; format: in vitro ADME
Method: Test 2: Test on Metabolic Stability in Human Liver Microsomes
In accordance with the below-described Table 2, an NRS (NADPH regenerating system) solution and 16% human serum albumin were added to a 0.1 mol/L phosphate buffer (containing 3.3 mM magnesium chloride) (pH 7.4), followed by the addition of a solution of a test compound (100 μM) in acetonitrile (0.01 mL). After preincubation in a warm bath of 37° C. for 5 minutes, human liver microsomes (POOLED HUMAN LIVER MICROSOMES, Lot. No. 20, product of GENETEST) were added and a reaction was effected for 30 minutes in a warm bath of 37° C. A 0.25 mL portion of the reaction mixture was collected 0 and 30 minutes after the initiation of the reaction, followed by extraction. The amount of the test compound was measured by HPLC. A remaining ratio of the unchanged compound after 30 minutes was calculated based on the following equation: (peak area after 30 minutes/peak area at 0 minute)×100.
To each sample were added 1.0 mL of a glycine buffer (pH 10), 0.1 mL of an internal standard substance and 5.0 mL of tert-butyl methyl ether, followed by shaking for 10 minutes and centrifugal separation at 2500 rpm for 10 minutes to collect the organic layer.

IC50 (ACAT): 49 nM
melting point: 176 to 177 °C
remaining ratio of the unchanged compound after 30 minutes ([2]; pooled human liver microsomes, 37° C., 30 minutes, NADPH regenerating system, human serum albumin, HPLC): 38%
metabolic resistance in human liver microsomes relative to compound (B) ([2]; times higher than compound (B)): about 40 times
SMILES: O=C(CN1CCN(CCSc2nc3cccc(C(F)(F)F)c3o2)CC1)Nc1c(C(F)(F)F)cc(O)cc1C(F)(F)F [compound (1), 2-[4-[2-(7-trifluoromethylbenzoxazol-2-ylthio)ethyl]piperazin-1-yl]-N-[4-hydroxy-2,6-bis(trifluoromethyl)phenyl]acetamide]
lipid deposition suppression ratio [1]: 43%
